# Source: publication PMC4286191 (MedChemComm, 2014)
# Assays:
# [1] = system: MCF-10A human breast epithelial cell line; test: Cytotoxicity in MCF-10A; format: cell-based
# CA46 Burkitt's lymphoma = test: Cytotoxicity in CA46; format: cell-based
# [2] = target: purified recombinant LSD1 (Homo sapiens, UniProt O60341); test: Fluorescence-based recombinant LSD1 inhibition assay; format: biochemical; conditions: residual activity at 10 μM; average of 3 determinations ± SEM; Table 2
% LSD1 Activity (10μM) [2],Compound,Cytotoxicity in MCF-10A [1],Cytotoxicity in CA46 (CA46 Burkitt's lymphoma)
,"COc1ccccc1CNc1n[nH]c(NCc2ccccc2OC)n1 [Compound 7, N^3,N[5]-bis(2-methoxybenzyl)-1H-1,2,4-triazole-3,5-diamine]",no significant cytotoxicity,no significant cytotoxicity
33.9 ± 6.7%,"N=C(NCCCNCCCCCCCNCCCNC(=N)NC(=N)NCCC(c1ccccc1)c1ccccc1)NC(=N)NCCC(c1ccccc1)c1ccccc1 [Compound 2, verlindamycin]",,
